Data on 1 molecule can be found in US7947854B2, “Bis-cationic compounds and use thereof” (The University of Sydney, priority 2003, dated 2011).

In assay [1] the test system is secreted phospholipase B (LPL/LPTA activities). As to the kind of experiment: Radiometric assay, secreted LPL and LPTA activities (Lyso assay). To be noted: for % Inhibition LPL, Secretory Enzyme / % Inhibition LPTA, Secretory Enzyme: pH 4. The class given is biochemical, Cryptococcus neoformans H99. The essentials:
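Cell-free supernatant from C. neoformans H99 (incubated 24 h at 37° C in imidazole buffer, pH 5.5) with 1 μg total protein and 200 μM lyso-PC incl. 1-[^14C]palmitoyl lyso-PC, 15 s reaction. LPL from substrate loss, LPTA from radiolabelled PC formed, after extraction and TLC; inhibitors tested at 25 and 250 μM, then 2.5 and 0.25 μM, inhibition vs inhibitor-free control, triplicate.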

In assay [2] the test system is cytosolic phospholipase B (PLB activity). As to the kind of experiment: Radiometric assay, cytosolic PLB activity. The assay is classed as biochemical, Cryptococcus neoformans H99. Particulars: pH 4. As for the experimental part:
Fungal isolates and media. […] Isolate H99 was kindly supplied by Dr. Gary Cox (Duke University Medical Center, Durham, N.C., USA), and subcultured onto Sabouraud dextrose agar (SDA) at 30° C.
Cellular disruption to prepare membrane and cytosolic fractions. The cell pellet from the preparation of the supernatant, above, was also frozen at −70° C. After washing twice with imidazole buffer, it was disrupted in the presence of a protease inhibitor cocktail (P 8215 for fungal and yeast cells; 4-(2-aminoethyl)benzenesulfonyl fluoride hydrochloride, 100 mM, 1,10-phenanthroline, 500 mM, pepstatin A, 2.2 mM, E-64, 1.4 mM; Sigma) in a MiniBeadbeater-8 Cell Disrupter (MBB-8; Daintree Scientific, Tasmania, Australia) for three cycles of 1 min, alternating with a 1 min cooling period on ice. The homogenate was centrifuged at 14,000 g for 15 min to obtain the membrane (pellet) and the cytosolic (supernatant) fractions.
Radiometric assay method for phospholipases. Enzyme activities were measured as described previously in a final volume of 125 μL at 37° C. For the determination of secreted PLB activity, carrier dipalmitoyl phosphatidylcholine (DPPC, final concentration 800 μM) and 1,2-di[1-^14C] palmitoyl phosphatidylcholine (20,000 dpm) were dried under nitrogen and suspended in 125 mM imidazole acetate buffer (assay buffer, pH 4.0) by sonication using a Branson 450 sonifier. The reaction time was 22 min, using 1 μg total protein and PLB activity was determined by the rate of decrease of the radiolabelled PC substrate, with appearance of the label in free fatty acid. This assay also simultaneously allows for the determination of phospholipase A, C and D activities. These activities were measured by the appearance of radiolabel from PC in Lyso PC, diacylglycerol and phosphatidic acid, respectively.
All reactions were terminated by adding 0.5 mL of chloroform:methanol (2:1 v/v). The reaction products were extracted by the method as disclosed in Bligh, E. C. and W. J. Dyer. 1959 ‘A rapid method of total lipid extraction and purification.’ Can. J. Biochem. Physiol. 37:911-917, separated by TLC and quantified as previously described. In the case of PLC activity, the TLC plates were developed in petroleum ether (BP 60-80° C.): diethyl ether: acetic acid (90:15:1, v/v/v) instead of chloroform:methanol:water (65:25:4, v/v/v).
All experiments were carried out in duplicate or triplicate. The effects of pH on the various phospholipase activities were measured using 50 mM final concentration of imidazole-acetate buffer (pH range 3-5), MES buffer (pH range 6-8) and glycine buffer (pH 9-10). Controls for non-enzymic breakdown of substrates were included at all pH values. Cations, Triton X-100 and metal chelators were made up as stock solutions in water and diluted to the final concentration in the appropriate assay buffer.
Preparation of inhibitors and use in assays. The following compounds were tested (for structures, see FIG. 2): compound 1, 1,12-bis(tributylphosphonium)dodecane dibromide (Fluka AG, Buchs, Switzerland); compound 2, 1,10-bis(tributylammonium)-decane dibromide; compound 3, 1,12-bis(tributylammonium)do-decane dibromide (both synthesised in-house); compound 4, 1,10-bis(trimethylammonium)decane dibromide [“decamethonium”] (Sigma, St. Louis Mo., USA). All compounds were prepared as stock solutions of 700 μM in assay buffer containing 5 mM EDTA, which was then diluted serially with buffer to obtain solutions of 70, 7, 0.7 and 0.07 μM. In each assay, 45 μL of these solutions was used, and the final volume of 125 μL was made up of substrate, enzyme and buffer. The radiometric assay was carried out as above.

Marks after values point to notes of the source that are not given here.

With `CCCC[P+](CCCC)(CCCC)CCCCCCCCCCCC[P+](CCCC)(CCCC)CCCC` [Compound 1, 1,12-bis(tributylphosphonium)dodecane dibromide], the “Lyso assay (% inhibition) LPL” value in assay [1] (0.25 μM) is 0%; in assay [1] (2.5 μM) it was 0%; in assay [1] (25 μM), 0%; in assay [1] (250 μM) it was 6%. Further, the “Lyso assay (% inhibition) LPTA” value is reported as 0% in assay [1] (0.25 μM), 0% in assay [1] (2.5 μM), 0% in assay [1] (25 μM) and 4% in assay [1] (250 μM). Besides, the “% Inhibition LPL, Secretory Enzyme” value in assay [1] (0.25 μM) is reported as 0%; in assay [1] (2.5 μM), 0%; in assay [1] (25 μM), 0%; in assay [1] (250 μM) it was 6.3* %. Further, the “% Inhibition LPTA, Secretory Enzyme” value in assay [1] (0.25 μM) is on record as 0%; in assay [1] (2.5 μM), 0%; in assay [1] (25 μM), 0%; in assay [1] (250 μM), 3.7* %. In addition, the “% Inhibition PLB, Cytosolic Enzyme” value is listed as 0% in assay [2] (2.5 μM), 0% in assay [2] (25 μM) and 41.3* % in assay [2] (250 μM).
